The values that follow come from patent US7915264B2, “Fused pyridine derivatives for use as vanilloid receptor antagonists for treating pain” (Novartis AG, priority 2001, dated 2011).

As a reminder, the IC50 is the concentration that inhibits the measured activity by half.

The target in experiment [1] is T1, human vanilloid receptor 1 (hVR1) ion channels (Homo sapiens, UniProt Q8NER1).
T1 construct: expressed in transfected cells; host or cells: CHO cells
The experiment can be described thus: Fluorescence assay (calcium-sensitive dye) in CHO cells expressing human vanilloid receptor 1 ion channels, stimulated by capsaicin or low pH. The class given is cell-based. Conditions: in vitro, VR1 ion channel block. How it is done: Fluorescence assay: Cultures of Chinese Hamster Ovary (CHO) cells expressing human vanilloid receptor 1 ion channels are prepared according to standard protocols [McIntyre et al., British Journal of Pharmacology 132: 1084-1094 (2001)]. The activity of test compounds are investigated using a fluorescence assay utilising calcium sensitive dyes to measure changes in [Ca^2+]i. The cells are plated at a density of 25,000 per well on 96 well Costar black, clear bottomed plates cultured at 37° C. in 5% CO2 in MEM medium overnight. On the day of the assay, cells are incubated in either 2 μM fura-2/AM or 2 μM fura-6F (Molecular Probes) made up in assay buffer [Hank's Balanced Salt Solution (HBSS, Invitrogen) containing 10 mM N-2-(hydroxyethylpiperazine-N′-[2-ethanesulfonic acid) (HEPES), pH 7.4] containing 0.01% pluronic F-127 for 30 min at room temperature. […] The fluorescence is measured over 1 min at 4 s intervals using excitation wavelengths of 340 and 380 nm and emission of 520 nm. […] The ratio of fluorescence intensities following excitation at 340 and 380 nm is calculated for each time point. The agonist-evoked response is calculated as the mean of the ratios in the four time-points following stimulation minus the basal ratio.

The target in another experiment is rat VR1 (Rattus norvegicus, UniProt O35433). The experiment can be described thus: Fluorescence assay, rat VR1. The class given is cell-based. To be noted: in vitro, VR1 ion channel block.
The test system of experiment [2] is rat model of neuropathic pain. The experiment can be described thus: Anti-hyperalgesic effects in a model of neuropathic pain in the rat (partial sciatic nerve ligation, paw pressure). The class given is in vivo. Conditions: single dose 0.3-30 mg/kg p.o. after establishment of hyperalgesia. How it is done: Test: Anti-Hyperalgesic Effects in a Model of Neuropathic Pain in the Rat
The agents of invention are potent and efficacious anti-hyperalgesic agents following oral administration in the following rat model of neuropathic pain. Peripheral neuropathy is induced by partial ligation of the left sciatic nerve. Mechanical hyperalgesia is assessed from paw withdrawal thresholds measured on the ipsilateral (ligated) and contralateral (non-ligated) hindpaws using standard paw pressure methods. Drug effects are studied 11-15 days post ligation. The mean paw withdrawal threshold±s.e.m. for the left (ligated) paw is compared to that of the right (non-ligated) paw.
The agents of invention are administered, e.g. orally in 20% cremophor/water in a volume of 1 ml. The post-drug percentage hyperalgesia values are obtained by comparison to the pre-drug value for the right (non-ligated) paw; this enables a true measure of the reduction in hyperalgesia to be obtained without the added complication of any drug effects on the right paw. […] The agents of invention produce a reversal of mechanical hyperalgesia at 0.1-100 mg/kg and show a rapid onset of activity with a long duration of action.

Sequence of rat VR1 (O35433 whole entry): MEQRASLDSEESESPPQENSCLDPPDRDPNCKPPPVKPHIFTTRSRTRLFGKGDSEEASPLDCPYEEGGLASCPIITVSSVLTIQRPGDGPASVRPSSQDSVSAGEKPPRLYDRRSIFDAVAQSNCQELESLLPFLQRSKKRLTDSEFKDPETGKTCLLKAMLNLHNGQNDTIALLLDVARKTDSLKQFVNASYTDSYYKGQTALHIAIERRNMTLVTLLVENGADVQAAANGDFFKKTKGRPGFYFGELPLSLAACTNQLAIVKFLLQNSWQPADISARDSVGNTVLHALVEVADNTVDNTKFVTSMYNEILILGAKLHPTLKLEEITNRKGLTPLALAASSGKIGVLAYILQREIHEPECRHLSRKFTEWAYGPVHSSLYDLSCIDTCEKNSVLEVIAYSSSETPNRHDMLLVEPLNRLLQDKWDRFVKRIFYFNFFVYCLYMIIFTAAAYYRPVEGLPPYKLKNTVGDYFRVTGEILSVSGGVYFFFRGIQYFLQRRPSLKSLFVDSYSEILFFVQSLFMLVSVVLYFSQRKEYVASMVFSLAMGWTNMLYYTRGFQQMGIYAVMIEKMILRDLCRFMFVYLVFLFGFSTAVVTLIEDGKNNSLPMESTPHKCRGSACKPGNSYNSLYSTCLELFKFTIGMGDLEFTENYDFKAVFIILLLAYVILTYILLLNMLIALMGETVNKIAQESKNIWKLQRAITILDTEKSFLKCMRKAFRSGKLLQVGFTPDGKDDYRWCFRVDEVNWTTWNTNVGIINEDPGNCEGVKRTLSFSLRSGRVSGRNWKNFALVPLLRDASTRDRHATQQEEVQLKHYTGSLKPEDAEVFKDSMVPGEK
T1 sequence (Q8NER1 whole entry): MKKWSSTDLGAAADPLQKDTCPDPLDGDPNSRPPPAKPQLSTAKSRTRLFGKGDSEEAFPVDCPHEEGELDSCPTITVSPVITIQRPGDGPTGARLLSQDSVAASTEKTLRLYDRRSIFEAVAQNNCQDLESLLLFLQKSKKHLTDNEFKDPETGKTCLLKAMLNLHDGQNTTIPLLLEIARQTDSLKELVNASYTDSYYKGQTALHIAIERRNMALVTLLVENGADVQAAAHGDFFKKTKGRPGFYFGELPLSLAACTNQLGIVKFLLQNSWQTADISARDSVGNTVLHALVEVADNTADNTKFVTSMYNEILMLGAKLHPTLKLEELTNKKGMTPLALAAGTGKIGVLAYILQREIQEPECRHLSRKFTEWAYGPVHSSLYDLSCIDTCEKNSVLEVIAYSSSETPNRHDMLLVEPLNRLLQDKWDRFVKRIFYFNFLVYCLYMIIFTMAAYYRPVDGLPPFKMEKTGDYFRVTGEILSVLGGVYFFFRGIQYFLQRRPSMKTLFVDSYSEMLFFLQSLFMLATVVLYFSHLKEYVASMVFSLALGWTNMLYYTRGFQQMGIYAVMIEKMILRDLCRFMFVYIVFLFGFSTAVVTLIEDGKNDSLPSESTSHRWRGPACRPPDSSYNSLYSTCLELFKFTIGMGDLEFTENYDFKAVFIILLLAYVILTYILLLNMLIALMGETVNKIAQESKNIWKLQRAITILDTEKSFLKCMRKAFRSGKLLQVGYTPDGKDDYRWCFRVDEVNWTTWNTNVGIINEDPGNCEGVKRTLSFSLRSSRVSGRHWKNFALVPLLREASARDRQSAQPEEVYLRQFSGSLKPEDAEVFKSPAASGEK

As for `CC(C)(C)c1nc2[nH]c(=S)[nH]c(=O)c2cc1-c1ccc(Cl)cc1` [Example 2, 7-.tert.-butyl-6-(4-chlorophenyl)-2-thioxo-2,3-dihydro-1.H.-pyrido[2,3-.d.]pyrimidin-4-one], in experiment [1], the IC50 turned out to be 65.1 nM. The IC50 against rat VR1 was determined as 19.2 nM. Besides, in experiment [2], the “duration of effect on paw withdrawal thresholds” value is “at least 6 h” and the “effect on paw withdrawal thresholds” value was “dose-dependently reduces paw withdrawal thresholds”.
